From article PMC10569036

Test: shake flask on a mixture of 185; loss from the water phase only; LC-Orbitrap peak areas
Conditions: room

Row | Structure (SMILES) | log partition 1-octanol / HPLC water, unbuffered, traces of methanol / DMSO | log partition butyl acetate / HPLC water, unbuffered, traces of methanol / DMSO | log partition chloroform / HPLC water, unbuffered, traces of methanol / DMSO | log partition cyclohexane / HPLC water, unbuffered, traces of methanol / DMSO | log partition dichloromethane / HPLC water, unbuffered, traces of methanol / DMSO | log partition n-hexane / HPLC water, unbuffered, traces of methanol / DMSO | log partition n-octane / HPLC water, unbuffered, traces of methanol / DMSO | log partition n-undecane / HPLC water, unbuffered, traces of methanol / DMSO | log partition oleylalcohol / HPLC water, unbuffered, traces of methanol / DMSO | log partition toluene / HPLC water, unbuffered, traces of methanol / DMSO
1 | O=C1C=CC(=O)N1c1ccc(Cc2ccc(N3C(=O)C=CC3=O)cc2)cc1 | -0.1715 log10 | -0.4086 log10 | -0.4673 log10 | -0.523 log10 | 0.07258 log10 | -0.4156 log10 | -0.5042 log10 | -0.6476 log10 | -0.3131 log10 | 0.01296 log10
2 | Nc1ccc(/N=N/c2ccccc2)cc1 | 1.65 log10 | 1.2 log10 | 1.001 log10 | 1.333 log10 | 1.434 log10 | 1.192 log10 | 1.439 log10 | 1.239 log10 | 1.015 log10 | 0.9966 log10
3 | CCOc1ccc2c(c1)C(C)CC(C)(C)N2 (centres unmarked) | 1.166 log10 | 0.4802 log10 | 0.1266 log10 | 0.1355 log10 | 0.03099 log10 | 0.4617 log10 | 0.03342 log10 | 0.09286 log10 | 0.8298 log10 | -0.1412 log10
4 | CCCCNS(=O)(=O)c1ccccc1 | 0.09093 log10 | -0.4267 log10 | 0.044 log10 | -0.2649 log10 | -0.02662 log10 | -0.2215 log10 | -0.4356 log10 | -0.4781 log10 | 0.1238 log10 | -0.1107 log10
5 | CCCCC(CC)COC(=O)c1ccccc1C(=O)O (centres unmarked) | -0.191 log10 | -0.07834 log10 | 0.168 log10 | -0.8356 log10 | 0.3352 log10 | -1.06 log10 | -1.182 log10 | -1.177 log10 | -0.5168 log10 | -0.2474 log10
6 | CCCCNC(=S)NCCCC | 1.103 log10 | 0.744 log10 | 0.6525 log10 | -0.1972 log10 | 0.6427 log10 | -0.2041 log10 | 0.07134 log10 | 0.1833 log10 | 0.9527 log10 | 0.4176 log10
7 | CCCCCCC(O)CCCCCCCCCCC(=O)OC (centres unmarked) | -0.3995 log10 | -0.5958 log10 | -0.2735 log10 | -0.4754 log10 | -1.47 log10 | -1.341 log10 | -1.53 log10 | -1.718 log10 | -0.7143 log10 | -1.19 log10
8 | Oc1c(Cl)ccc(Cl)c1Cl | -0.2337 log10 | -1.606 log10 | 0.7523 log10 | 0.2263 log10 | -0.3412 log10 | -0.04129 log10 | 0.4223 log10 | -0.1707 log10 | -0.8397 log10 | -0.4023 log10
9 | CC(C)Nc1nc(N)nc(Cl)n1 | 1.201 log10 | 1.711 log10 | 1.238 log10 | -0.6663 log10 | 1.437 log10 | -0.7941 log10 | -0.5719 log10 | -1.115 log10 | 1.559 log10 | 0.5402 log10
10 | COC(=O)c1ccc(C(=O)OC)c(C(=O)OC)c1 | 1.294 log10 | 0.7248 log10 | 1.573 log10 | 1.164 log10 | 1.169 log10 | 0.9609 log10 | 1.205 log10 | 0.9207 log10 | 0.6631 log10 | 1.185 log10
11 | CC(=O)/C=C/c1ccccc1 | 0.1948 log10 | -0.04199 log10 | -0.02485 log10 | -0.3829 log10 | -0.0685 log10 | -0.3815 log10 | -0.655 log10 | -0.7862 log10 | -0.0887 log10 | -0.2533 log10
12 | CN1COCN(Cc2cnc(Cl)s2)C1=N[N+](=O)[O-] | -0.1952 log10 | 0.2434 log10 | 1.267 log10 | -1.812 log10 | 1.869 log10 | -1.862 log10 | -1.749 log10 | -1.056 log10 | -0.5161 log10 | -0.2331 log10
13 | CC(C)(C#N)Nc1nc(Cl)nc(NC2CC2)n1 | 2.353 log10 | 1.721 log10 | 2.761 log10 | -0.1053 log10 | 2.268 log10 | -0.13 log10 | 0.2329 log10 | -0.4376 log10 | 1.837 log10 | 1.234 log10
14 | N#CC(c1ccccc1)c1ccccc1 | -0.3597 log10 | 0.2978 log10 | -0.002518 log10 | -0.2823 log10 | 0.1658 log10 | -0.257 log10 | -0.2917 log10 | -0.816 log10 | 0.1292 log10 | 0.1711 log10
